Reference: EP4745135A1 (Gluetacs Therapeutics (Shanghai) Co., Ltd., priority 2023, dated 2025)

What was measured:
GSPT1 = test: Western blot, degradation of substrate protein in hPBMCs; assay type: cell-based, Human; settings: 24 hours treatment, compounds at 50 nM and 500 nM (concentration behind the class not stated)
[1] = tested on: Human monocytic leukemia cell line: THP-1; test: Tumor cell proliferation inhibition (CellTiter-Meiluncell luminescent cell viability assay); settings: THP-1, 96 h; for inhibition at 0.01 µM: read-out: Inhibition Rate at 10 nM (%); for inhibition at 0.5 µM: read-out: Inhibition Rate at 500 nM (%)
Description: (§1) The tumor cells used herein were cultured in a cell culture medium listed in table 2 at 37°C in an incubator with 5% CO2. Prior to experimentation, all cell lines used were correctly identified by STR profiling, and tested negative for mycoplasma contamination using a mycoplasma detection kit through routine screenings.
(§2) The IC50 values of the compounds of the present disclosure (including the compounds in Table 1 and Examples) were determined using the CellTiter-Meiluncell Luminescent Cell Viability Assay Kit from Dalian Meilun Biotech Co., Ltd. The detailed procedure is as follows: Tumor cells were seeded in 96-well cell culture plates at the densities specified in Table 3. On the following day, the test compounds of the present disclosure were subjected to serial dilution. The dilution can be performed according to one of the following two methods: • (1) The first dilution method: The test compounds of the present disclosure (including the compounds in Table 1 and Examples) were subjected to 5-fold serial dilutions starting from a highest concentration of 2000 µM, resulting in a total of 9 concentrations from high to low (2000, 400, 80, 16, 3.2, 0.64, 0.128, 0.0256, 0.00512 µM). Subsequently, 0.5 µL of the test compound dilution was transferred into the 96-well plate containing the cells, with each well containing 100 µL of cell culture medium. […] Into the 96-well plate, the diluted test compounds and corresponding detection reagents were added, resulting in final test compound concentrations of 500 nM and 10 nM, respectively. The experimental procedure is described below using the diluted 2 µM test compound as an example.
(§3) 0.5 µL of the aforementioned diluted compound of the present disclosure (including the compounds in Table 1 and Examples) was added to the seeded cells in 100 µL of medium, yielding a final test compound concentration of 10 nM. After the cells were treated with the compounds of the present disclosure for a specified period, the cell viability assay reagent was added to the culture medium according to the kit's instructions to determine cell viability. […] All controls were treated using the same procedure as the compounds of the present disclosure. The growth inhibition curves for the compounds of the present disclosure were plotted using Prism GraphPad software, and the IC50 values were calculated therefrom.

[2] = tested on: Human malignant melanoma cell line: A375; test: as above; settings: A-375, 96 h; for inhibition at 0.01 µM: read-out: Inhibition Rate at 10 nM (%); for inhibition at 0.5 µM: read-out: Inhibition Rate at 500 nM (%)
WEE1 = target: T1, WEE1 (Homo sapiens, UniProt P30291+Q96SW2); test: Western blot, degradation of substrate protein in hPBMCs; assay type: cell-based; settings: 24 hours treatment, compounds at 50 nM and 500 nM (concentration behind the class not stated)
T1 construct: effects of the compounds of the present disclosure on the expression of target proteins in cells; endogenous in cells; host or cells: human PBMCs (Milecell Biotechnologies)

CK1α = target: T2, CK1α (Homo sapiens, UniProt P48729+Q96SW2); test: as above; assay type: cell-based; settings: 24 hours treatment, compounds at 50 nM and 500 nM (concentration behind the class not stated)
T2 construct: effects of the compounds of the present disclosure on the expression of target proteins in cells; endogenous in cells; host or cells: human PBMCs (Milecell Biotechnologies)

IKZF2 = target: T3, IKZF2 (Homo sapiens, UniProt Q96SW2+Q9UKS7); test: as above; assay type: cell-based; settings: 24 hours treatment, compounds at 50 nM and 500 nM (concentration behind the class not stated)
T3 construct: effects of the compounds of the present disclosure on the expression of target proteins in cells; endogenous in cells; host or cells: human PBMCs (Milecell Biotechnologies)

IKZF3 = target: T4, IKZF3 (Homo sapiens, UniProt Q96SW2+Q9UKT9); test: as above; assay type: cell-based; settings: 24 hours treatment, compounds at 50 nM and 500 nM (concentration behind the class not stated)
T4 construct: effects of the compounds of the present disclosure on the expression of target proteins in cells; endogenous in cells; host or cells: human PBMCs (Milecell Biotechnologies)

IKZF1 = target: T5, IKZF1 (Homo sapiens, UniProt Q13422+Q96SW2); test: as above; assay type: cell-based; settings: 24 hours treatment, compounds at 50 nM and 500 nM (concentration behind the class not stated)
T5 construct: effects of the compounds of the present disclosure on the expression of target proteins in cells; endogenous in cells; host or cells: human PBMCs (Milecell Biotechnologies)

[3] = target: T6, human Cereblon WT GST-tagged protein (Homo sapiens, UniProt Q96SW2); test: CRBN-binding affinity, HTRF (CEREBLON BINDING kit); settings: for inhibition at 0.5 µM: read-out: Inhibition Rate at 0.5 µM (%); for inhibition at 2 µM: read-out: Inhibition Rate at 2 µM (%)
T6 construct: purchased CISBIO 64BDCRBNPEH

[4] = tested on: Human colon cancer cell line: SW620; test: Tumor cell proliferation inhibition (CellTiter-Meiluncell luminescent cell viability assay); settings: SW-620, 96 h; for inhibition at 0.01 µM: read-out: Inhibition Rate at 10 nM (%); for inhibition at 0.5 µM: read-out: Inhibition Rate at 500 nM (%)
Description: as §1, §2, §3

[5] = tested on: Human breast cancer cell (MCF-7); test: as above; settings: MCF7, 96 h; for inhibition at 0.01 µM: read-out: Inhibition Rate at 10 nM (%); for inhibition at 0.5 µM: read-out: Inhibition Rate at 500 nM (%)
[6] = tested on: Human multiple myeloma cell (MM.1S); test: as above; settings: Homo sapiens, MM1.S, 96 h
[7] = tested on: Human multiple myeloma peripheral blood B lymphocyte cell (RPMI-8226); test: as above; settings: RPMI-8226, 96 h
[8] = read-out: Inhibition Rate at 10 nM (%)
[9] = read-out: Inhibition Rate at 500 nM (%)

T6 sequence (Q96SW2 whole entry): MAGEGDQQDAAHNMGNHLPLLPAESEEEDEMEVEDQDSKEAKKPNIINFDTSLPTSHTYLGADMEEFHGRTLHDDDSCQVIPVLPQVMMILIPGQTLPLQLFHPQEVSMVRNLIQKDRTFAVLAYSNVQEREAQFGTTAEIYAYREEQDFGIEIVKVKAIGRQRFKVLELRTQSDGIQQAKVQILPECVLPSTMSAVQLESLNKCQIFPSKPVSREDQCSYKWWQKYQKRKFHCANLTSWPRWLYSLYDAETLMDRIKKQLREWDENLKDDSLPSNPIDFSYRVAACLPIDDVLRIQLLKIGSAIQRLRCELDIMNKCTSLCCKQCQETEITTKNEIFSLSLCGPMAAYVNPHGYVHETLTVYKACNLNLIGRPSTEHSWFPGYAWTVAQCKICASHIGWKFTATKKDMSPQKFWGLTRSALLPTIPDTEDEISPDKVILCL
T5 sequence (Q13422 whole entry): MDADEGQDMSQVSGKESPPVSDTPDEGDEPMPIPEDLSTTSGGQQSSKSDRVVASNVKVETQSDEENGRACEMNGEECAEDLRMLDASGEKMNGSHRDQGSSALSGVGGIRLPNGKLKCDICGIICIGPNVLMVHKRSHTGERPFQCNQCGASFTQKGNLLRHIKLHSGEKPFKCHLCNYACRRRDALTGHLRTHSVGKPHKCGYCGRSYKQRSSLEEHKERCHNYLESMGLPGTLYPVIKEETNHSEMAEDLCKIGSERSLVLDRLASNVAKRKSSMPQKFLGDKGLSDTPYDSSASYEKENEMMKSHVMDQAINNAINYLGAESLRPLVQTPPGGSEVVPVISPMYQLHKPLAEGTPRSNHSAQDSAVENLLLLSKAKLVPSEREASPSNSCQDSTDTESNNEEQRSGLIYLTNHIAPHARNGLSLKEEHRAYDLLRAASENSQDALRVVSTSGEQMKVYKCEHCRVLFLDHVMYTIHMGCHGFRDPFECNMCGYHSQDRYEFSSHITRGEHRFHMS
T5 sequence (Q96SW2 whole entry): as the sequence (Q96SW2 whole entry) above
T5 sequence (Q16531 whole entry partner): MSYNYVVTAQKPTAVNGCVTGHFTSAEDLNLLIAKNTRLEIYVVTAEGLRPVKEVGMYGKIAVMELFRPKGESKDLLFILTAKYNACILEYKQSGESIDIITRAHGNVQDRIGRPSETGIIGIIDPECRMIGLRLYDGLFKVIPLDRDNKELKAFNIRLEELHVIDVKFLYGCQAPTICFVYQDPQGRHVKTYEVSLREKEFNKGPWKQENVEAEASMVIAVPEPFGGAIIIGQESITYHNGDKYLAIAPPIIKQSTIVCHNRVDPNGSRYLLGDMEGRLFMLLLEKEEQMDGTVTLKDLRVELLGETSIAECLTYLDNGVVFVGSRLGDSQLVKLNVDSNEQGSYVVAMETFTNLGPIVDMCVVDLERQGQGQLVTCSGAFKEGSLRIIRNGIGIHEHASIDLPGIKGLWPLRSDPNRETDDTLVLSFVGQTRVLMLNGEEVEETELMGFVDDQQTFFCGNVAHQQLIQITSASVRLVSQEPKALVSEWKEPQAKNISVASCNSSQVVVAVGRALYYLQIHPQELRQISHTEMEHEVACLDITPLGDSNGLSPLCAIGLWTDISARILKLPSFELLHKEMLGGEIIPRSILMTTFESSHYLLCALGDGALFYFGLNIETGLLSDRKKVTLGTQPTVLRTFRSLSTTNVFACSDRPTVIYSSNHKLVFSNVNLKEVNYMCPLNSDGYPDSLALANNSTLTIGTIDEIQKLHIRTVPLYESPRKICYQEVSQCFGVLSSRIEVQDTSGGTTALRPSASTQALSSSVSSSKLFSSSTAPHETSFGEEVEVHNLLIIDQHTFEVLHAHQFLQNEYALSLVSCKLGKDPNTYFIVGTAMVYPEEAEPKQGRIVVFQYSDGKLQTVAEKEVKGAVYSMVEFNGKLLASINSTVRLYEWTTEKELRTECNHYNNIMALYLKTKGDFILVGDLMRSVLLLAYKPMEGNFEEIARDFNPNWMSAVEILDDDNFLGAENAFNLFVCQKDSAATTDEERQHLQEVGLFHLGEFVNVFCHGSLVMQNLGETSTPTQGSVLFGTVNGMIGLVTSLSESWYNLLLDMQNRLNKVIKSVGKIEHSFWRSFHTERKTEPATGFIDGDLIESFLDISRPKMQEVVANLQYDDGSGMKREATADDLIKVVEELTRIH
T3 sequence (Q9UKS7 whole entry): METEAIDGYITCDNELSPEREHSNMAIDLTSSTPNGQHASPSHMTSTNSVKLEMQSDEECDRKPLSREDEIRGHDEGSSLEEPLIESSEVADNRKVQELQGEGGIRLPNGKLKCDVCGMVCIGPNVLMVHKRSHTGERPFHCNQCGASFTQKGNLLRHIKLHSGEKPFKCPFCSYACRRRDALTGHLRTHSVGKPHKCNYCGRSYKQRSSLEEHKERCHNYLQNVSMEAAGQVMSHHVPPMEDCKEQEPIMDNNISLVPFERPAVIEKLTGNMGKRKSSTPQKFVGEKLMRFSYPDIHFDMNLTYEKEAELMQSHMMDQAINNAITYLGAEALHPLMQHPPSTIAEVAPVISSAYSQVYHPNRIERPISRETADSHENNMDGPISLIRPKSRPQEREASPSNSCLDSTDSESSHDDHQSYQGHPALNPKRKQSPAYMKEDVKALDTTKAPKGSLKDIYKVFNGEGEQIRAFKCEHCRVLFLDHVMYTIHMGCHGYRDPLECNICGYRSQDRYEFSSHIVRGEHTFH
T3 sequence (Q96SW2 whole entry): as the sequence (Q96SW2 whole entry) above
T3 sequence (Q16531 whole entry partner): as the sequence (Q16531 whole entry partner) above
T1 sequence (P30291 whole entry): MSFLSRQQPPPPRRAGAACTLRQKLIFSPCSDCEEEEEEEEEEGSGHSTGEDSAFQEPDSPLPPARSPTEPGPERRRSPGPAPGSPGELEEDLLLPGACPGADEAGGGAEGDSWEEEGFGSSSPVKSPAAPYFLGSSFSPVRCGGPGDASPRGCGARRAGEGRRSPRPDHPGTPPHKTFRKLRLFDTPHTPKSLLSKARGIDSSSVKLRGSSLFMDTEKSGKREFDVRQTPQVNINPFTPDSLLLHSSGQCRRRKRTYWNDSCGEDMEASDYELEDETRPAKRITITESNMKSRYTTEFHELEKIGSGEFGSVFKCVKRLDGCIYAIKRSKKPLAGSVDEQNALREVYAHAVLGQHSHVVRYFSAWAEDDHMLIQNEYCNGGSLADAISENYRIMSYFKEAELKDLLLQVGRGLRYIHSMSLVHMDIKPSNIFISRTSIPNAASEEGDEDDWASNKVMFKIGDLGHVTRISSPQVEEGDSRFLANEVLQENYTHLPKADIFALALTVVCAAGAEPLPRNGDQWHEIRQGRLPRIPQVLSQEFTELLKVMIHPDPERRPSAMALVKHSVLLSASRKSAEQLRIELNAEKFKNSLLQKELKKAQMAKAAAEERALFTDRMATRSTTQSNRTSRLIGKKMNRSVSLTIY
T1 sequence (Q96SW2 whole entry): as the sequence (Q96SW2 whole entry) above
T1 sequence (Q16531 whole entry partner): as the sequence (Q16531 whole entry partner) above
T4 sequence (Q9UKT9 whole entry): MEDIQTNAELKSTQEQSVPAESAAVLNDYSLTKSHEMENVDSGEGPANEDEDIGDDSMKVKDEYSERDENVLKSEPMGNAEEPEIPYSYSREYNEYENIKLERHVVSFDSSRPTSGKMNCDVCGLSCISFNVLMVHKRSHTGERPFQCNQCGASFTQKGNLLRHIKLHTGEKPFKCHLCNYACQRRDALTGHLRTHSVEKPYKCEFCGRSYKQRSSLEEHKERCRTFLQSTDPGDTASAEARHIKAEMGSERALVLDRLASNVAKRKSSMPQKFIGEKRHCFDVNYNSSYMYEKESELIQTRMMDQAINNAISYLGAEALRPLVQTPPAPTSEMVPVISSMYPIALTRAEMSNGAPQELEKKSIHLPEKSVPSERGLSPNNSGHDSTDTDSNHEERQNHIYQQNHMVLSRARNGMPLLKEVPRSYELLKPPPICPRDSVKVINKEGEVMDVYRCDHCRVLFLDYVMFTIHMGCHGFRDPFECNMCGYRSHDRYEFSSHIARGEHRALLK
T4 sequence (Q96SW2 whole entry): as the sequence (Q96SW2 whole entry) above
T4 sequence (Q16531 whole entry partner): as the sequence (Q16531 whole entry partner) above
T2 sequence (P48729 whole entry): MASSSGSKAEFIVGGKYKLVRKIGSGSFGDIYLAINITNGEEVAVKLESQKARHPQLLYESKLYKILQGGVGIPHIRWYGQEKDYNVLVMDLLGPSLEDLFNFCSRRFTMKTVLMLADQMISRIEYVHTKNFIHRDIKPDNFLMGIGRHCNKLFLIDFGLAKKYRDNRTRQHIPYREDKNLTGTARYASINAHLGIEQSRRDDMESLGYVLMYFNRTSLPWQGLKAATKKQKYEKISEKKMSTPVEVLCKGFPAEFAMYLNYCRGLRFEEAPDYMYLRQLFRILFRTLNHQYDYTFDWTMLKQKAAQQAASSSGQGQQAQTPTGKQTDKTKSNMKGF
T2 sequence (Q96SW2 whole entry): as the sequence (Q96SW2 whole entry) above
T2 sequence (Q16531 whole entry partner): as the sequence (Q16531 whole entry partner) above

| SMILES | GSPT1 substrate protein remaining % (GSPT1) | inhibition at 0.01 µM [1] [%] | inhibition at 0.5 µM [1] [%] | inhibition at 0.01 µM [2] [%] | inhibition at 0.5 µM [2] [%] | Wee1 substrate protein remaining % (WEE1) | CK1α substrate protein remaining % (CK1α) | IKZF2 substrate protein remaining % (IKZF2) | IKZF3 substrate protein remaining % (IKZF3) | IKZF 1 substrate protein remaining % (IKZF1) | inhibition at 0.5 µM [3] [%] | inhibition at 2 µM [3] [%] | inhibition at 0.01 µM [4] [%] | inhibition at 0.5 µM [4] [%] | inhibition at 0.01 µM [5] [%] | inhibition at 0.5 µM [5] [%] | inhibition at 0.01 µM [6, 8] [%] | inhibition at 0.5 µM [6, 9] [%] | inhibition at 0.01 µM [7, 8] [%] | inhibition at 0.5 µM [7, 9] [%] |
| --- | --- | --- | --- | --- | --- | --- | --- | --- | --- | --- | --- | --- | --- | --- | --- | --- | --- | --- | --- | --- |
| O=C1CCC(N2Cc3cc(CN4CC=C(c5ncc6ccsc6n5)CC4)ccc3C2=S)C(=O)N1 (centres unmarked) [GT-09327, 3-(5-((4-(thieno[2,3-d]pyrimidin-2-yl)-3,6-dihydropyridin-1(2H)-yl)methyl)-1-thioxoisoindolin-2-yl)piperidine-2,6-dione] | A (0% ≤ substrate protein remaining % ≤ 80%) | 20 to 30 | 80 to 100 | 20 to 30 | 80 to 100 | A (0% ≤ substrate protein remaining % ≤ 80%) | B (80%< substrate protein remaining %≤ 100%) | A (0% ≤ substrate protein remaining % ≤ 80%) | B (80%< substrate protein remaining %≤ 100%) | B (80%< substrate protein remaining %≤ 100%) | 60 to 80 | 80 to 100 | 30 to 40 | 80 to 100 | – | – | – | – | – | – |
| O=C1CCC(N2Cc3cc(CN4CC=C(c5ncnc6sccc56)CC4)ccc3C2=S)C(=O)N1 (centres unmarked) [GT-09314, 3-(5-((4-(thieno[2,3-d]pyrimidin-4-yl)-3,6-dihydropyridin-1(2H)-yl)methyl)-1-thioxoisoindolin-2-yl)piperidine-2,6-dione] | A (0% ≤ substrate protein remaining % ≤ 80%) | 5 to 10 | 80 to 100 | 5 to 10 | 40 to 50 | A (0% ≤ substrate protein remaining % ≤ 80%) | B (80%< substrate protein remaining %≤ 100%) | B (80%< substrate protein remaining %≤ 100%) | A (0% ≤ substrate protein remaining % ≤ 80%) | A (0% ≤ substrate protein remaining % ≤ 80%) | 80 to 100 | 80 to 100 | 10 to 20 | 80 to 100 | – | – | – | – | – | – |
| CC(C)c1cc2c(C3=CCN(Cc4ccc5c(c4)CN(C4CCC(=O)NC4=O)C5=S)CC3)ncnc2s1 (centres unmarked) [GT-09317, 3-(5-((4-(6-isopropylthieno[2,3-d]pyrimidin-4-yl)-3,6-dihydropyridin-1(2H)-yl)methyl)-1-thioxoisoindolin-2-yl)piperidine-2,6-dione] | A (0% ≤ substrate protein remaining % ≤ 80%) | 80 to 100 | 100 to 110 | 50 to 60 | 80 to 100 | A (0% ≤ substrate protein remaining % ≤ 80%) | B (80%< substrate protein remaining %≤ 100%) | A (0% ≤ substrate protein remaining % ≤ 80%) | A (0% ≤ substrate protein remaining % ≤ 80%) | A (0% ≤ substrate protein remaining % ≤ 80%) | 40 to 53 | 80 to 100 | 80 to 100 | 100 to 110 | 5 to 10 | 80 to 100 | 10 to 20 | 60 to 70 | – | – |
| Cc1cc2c(C3=CCN(Cc4ccc5c(c4)CN(C4CCC(=O)NC4=O)C5=S)CC3)ncnc2s1 (centres unmarked) [GT-09316, 3-(5-((4-(6-methylthieno[2,3-d]pyrimidin-4-yl)-3,6-dihydropyridin-1(2H)-yl)methyl)-1-thioxoisoindolin-2-yl)piperidine-2,6-dione] | A (0% ≤ substrate protein remaining % ≤ 80%) | 5 to 10 | 80 to 100 | 30 to 40 | 80 to 100 | B (80%< substrate protein remaining %≤ 100%) | B (80%< substrate protein remaining %≤ 100%) | B (80%< substrate protein remaining %≤ 100%) | A (0% ≤ substrate protein remaining % ≤ 80%) | A (0% ≤ substrate protein remaining % ≤ 80%) | 60 to 80 | 80 to 100 | 10 to 20 | 80 to 100 | – | – | – | – | – | – |
| Cc1nc(C2=CCN(Cc3ccc4c(c3)CN(C3CCC(=O)NC3=O)C4=S)CC2)c2ccsc2n1 (centres unmarked) [GT-09322, 3-(5-((4-(2-methylthieno[2,3-d]pyrimidin-4-yl)-3,6-dihydropyridin-1(2H)-yl)methyl)-1-thioxoisoindolin-2-yl)piperidine-2,6-dione] | A (0% ≤ substrate protein remaining % ≤ 80%) | 10 to 20 | 80 to 100 | 10 to 20 | 80 to 100 | A (0% ≤ substrate protein remaining % ≤ 80%) | B (80%< substrate protein remaining %≤ 100%) | B (80%< substrate protein remaining %≤ 100%) | B (80%< substrate protein remaining %≤ 100%) | A (0% ≤ substrate protein remaining % ≤ 80%) | 60 to 80 | 80 to 100 | 5 to 10 | 80 to 100 | – | – | – | – | – | – |
| O=C1CCC(N2Cc3cc(CN4CC=C(c5ncnc6sc(-c7ccccc7)cc56)CC4)ccc3C2=S)C(=O)N1 (centres unmarked) [GT-09319, 3-(5-((4-(6-phenylthieno[2,3-d]pyrimidin-4-yl)-3,6-dihydropyridin-1(2H)-yl)methyl)-1-thioxoisoindolin-2-yl)piperidine-2,6-dione] | A (0% ≤ substrate protein remaining % ≤ 80%) | 80 to 100 | 80 to 100 | 40 to 50 | 80 to 100 | A (0% ≤ substrate protein remaining % ≤ 80%) | B (80%< substrate protein remaining %≤ 100%) | A (0% ≤ substrate protein remaining % ≤ 80%) | A (0% ≤ substrate protein remaining % ≤ 80%) | A (0% ≤ substrate protein remaining % ≤ 80%) | 60 to 80 | 80 to 100 | 70 to 80 | 80 to 100 | 20 to 30 | 70 to 80 | – | – | 5 to 10 | 50 to 60 |
